Assays:
[1] = system: PGE2 production from IL-1β-stimulated MG-63 cells; assay: Suppressing action on PGE2 production from IL-1β-stimulated MG-63 cells; format: cell-based; details: Homo sapiens, IL-1β 1 ng/ml, 18 hours, read-out: PGE2 production suppression ratio
Outline: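 Human osteosarcoma MG-63 cells (2×10^4/well) switched to 0.5% FBS medium, treated with compound, then stimulated with IL-1β at 1 ng/ml final for 18 h. Supernatant PGE2 measured by EIA; suppression ratio calculated against stimulated and unstimulated wells.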

[2] = system: IgE-stimulated footpad edema; assay: Mouse IgE-stimulated footpad edema reaction; format: in vivo; details: C57BL/6 male mice, oral 0.1 to 500 mg/kg, compared with positive control group
Method: 4. Suppressing Effect on Mouse IgE-stimulated Footpad Edema Reaction
Suppression on footpad edema caused by IgE antibody as an allergic stimulant was studied by the following method. Groups of C57BL/6 male mice (9- to 11-week old) each consisting of five mice were used for the test. Anti-DNP-BSA IgE serum was subcutaneously administered in a volume of 20 μl to right hind leg footpad of each mouse one day before the test. A test compound was suspended or dissolved in purified water containing 0.5% methylcellulose and orally administered to the test animals at 0.1 to 500 mg/0.2 ml/kg. To the control group, purified water containing 0.5% methylcellulose was administered in a similar manner, which was not added with the test compound. Two hours after the administration of the test compound, 0.2 ml of a solution of DNP-BSA dissolved in physiological saline (Otsuka Pharmaceutical) at 2.5 μg/ml was intravenously administered. The thickness of right hind leg footpad was measured by using a digital thickness gauge (MITSUTOYO) 10, 15, 20, and 30 minutes after the administration of DNP-BSA. A difference of the thickness of footpad measured above and the thickness before the administration of the test compound measured beforehand was regarded as a thickness of edema.
For the thickness of the edema at 10, 15, 20 and 30 minutes after the DNP-BSA administration, a graph was prepared indicating time in abscissa and the edema thickness in ordinate, and edema thickness AUC […] was obtained by calculation according to the following equation. Edema thickness AUC (mm·minute)=1/2×10×A+5×(A+B)/2+5×(B+C)/2+10×(C+D)/2 • A: Edema thickness 10 minutes after DNP-BSA administration • B: Edema thickness 15 minutes after DNP-BSA administration • C: Edema thickness 20 minutes after DNP-BSA administration • D: Edema thickness 30 minutes after DNP-BSA administration
A suppressing ratio on edema of a test compound was obtained by calculation in accordance with the following equation. Edema suppression ratio (%)=[1−B/A]×100 • A: Edema thickness AUC of positive control • B: Edema thickness AUC of test compound administered group (2) Measurement Results

[3] = system: LTB4 production from IgE-stimulated RBL-2H3 cells; assay: Suppressing action on LTB4 production from IgE-stimulated RBL-2H3 cells; format: cell-based; details: Rattus norvegicus, 10 min, IgE/DNP-BSA stimulated RBL-2H3 cells, read-out: LTB4 production suppression ratio
Outline: (§1)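 Rat RBL-2H3 mastocytoma cells, sensitized 30 min with anti-DNP-BSA IgE, then given test compound in 0.5% FBS medium and stimulated with DNP-BSA (100 ng/ml final). Supernatant PGD2 and LTB4 were measured by EIA after 10 min. Suppression ratio is calculated against unstimulated and stimulant-only controls.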

[4] = system: PGD2 production from IgE-stimulated RBL-2H3 cells; assay: Suppressing action on PGD2 production from IgE-stimulated RBL-2H3 cells; format: cell-based; details: Rattus norvegicus, 10 min, IgE/DNP-BSA stimulated RBL-2H3 cells, read-out: PGD2 production suppression ratio
Outline: as §1

[5] = system: zymosan-stimulated footpad edema; assay: Mouse zymosan-stimulated footpad edema reaction; format: in vivo; details: ICR female mice, oral 0.1 to 500 mg/kg, compared with positive control group
Outline: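 Female ICR mice (6–7 weeks, n=8) dosed orally at 0.1 to 500 mg/kg in 0.5% methylcellulose; 1 h later zymosan (1 mg/ml, 0.02 ml) injected s.c. into right hind footpad. Edema volume at 1 and 2 h gave AUC to 2 h; suppression (%) calculated against positive control AUC.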

| Structure (SMILES) | inhibition at 0.4 µM [1] | suppression of footpad edema caused by IgE stimulation [2] | inhibition at 0.4 µM [3] | inhibition at 0.4 µM [4] | suppression of footpad edema caused by zymosan [5] |
| --- | --- | --- | --- | --- | --- |
| O=C(O)CCc1ccc(OCc2ccc(F)cc2)c(-c2ccc3[nH]ccc3c2)c1 [Compound 146, 3-[4-(4-fluorophenylmethyloxy)-3-(1H-indol-5-yl)phenyl]propionic acid] | ≥ 50% | suppressed the footpad edema | ≥ 50% | ≥ 50% | suppressed footpad edema |
| O=C(O)CCc1ccc(OCC2CC3CCC2C3)c(-c2ccc3[nH]ccc3c2)c1 (stereo not shown) [Compound 177, 3-[4-(bicyclo[2,2,1]hept-2-ylmethyloxy)-3-(1H-indol-5-yl)phenyl]propionic acid] | ≥ 50% | suppressed the footpad edema | ≥ 50% | ≥ 50% | suppressed footpad edema |
| CC(C)C(C)COc1ccc(CCC(=O)O)cc1-c1ccc2[nH]ccc2c1 (stereo not shown) [Compound 181, 3-[4-(2,3-dimethylbutyloxy)-3-(1H-indol-5-yl)phenyl]propionic acid] | ≥ 50% | suppressed the footpad edema | ≥ 50% | ≥ 50% | suppressed footpad edema |
| CCCCOc1ccc(COc2ccc(CCC(=O)O)cc2-c2ccc3[nH]ccc3c2)cc1 [Compound 186, 3-{4-[4-(butyloxy)phenylmethyloxy]-3-(1H-indol-5-yl)phenyl}propionic acid] | ≥ 50% | suppressed the footpad edema | ≥ 50% | ≥ 50% | suppressed footpad edema |
| O=C(O)CCc1ccc(OCCCc2ccccc2)c(-c2ccc3[nH]ccc3c2)c1 [Compound 220, 3-[3-(1H-indol-5-yl)-4-(3-phenylpropyloxy)phenyl]propionic acid] | ≥ 50% | suppressed the footpad edema | ≥ 50% | ≥ 50% | suppressed footpad edema |
| CN(CCOc1ccc(CCC(=O)O)cc1-c1ccc2[nH]ccc2c1)c1ccccc1 [Compound 229, 3-{3-(1H-indol-5-yl)-4-[2-(N-phenyl-N-methylamino)-ethyloxy]phenyl}propionic acid] | ≥ 50% | suppressed the footpad edema | ≥ 50% | ≥ 50% | suppressed footpad edema |
| O=C(O)CCc1ccc(OCC2CCCCC2)c(-c2ccc3[nH]ccc3c2)c1 [Compound 231, 3-[4-cyclohexylmethyloxy-3-(1H-indol-5-yl)phenyl]propionic acid] | ≥ 50% | suppressed the footpad edema | ≥ 50% | ≥ 50% | suppressed footpad edema |
| Cn1ccc2cc(-c3cc(CCC(=O)O)ccc3OCC3CCCCC3)ccc21 [Compound 233, 3-[4-cyclohexylmethyloxy-3-(1-methyl-1H-indol-5-yl)phenyl]propionic acid] | ≥ 50% | suppressed the footpad edema | ≥ 50% | ≥ 50% | suppressed footpad edema |
| CCn1ccc2cc(-c3cc(CCC(=O)O)ccc3OCC3CCCC3)ccc21 [Compound 236, 3-[4-cyclopentylmethyloxy-3-(1-ethyl-1H-indol-5-yl)phenyl]propionic acid] | ≥ 50% | suppressed the footpad edema | ≥ 50% | ≥ 50% | suppressed footpad edema |
| O=C(O)CCc1ccc(OCC2CCCC2)c(-c2ccc3c(ccn3CCO)c2)c1 [Compound 243, 3-{4-cyclopentylmethyloxy-3-[1-(2-hydroxyethyl)-1H-indol-5-yl]phenyl}propionic acid] | ≥ 50% | suppressed the footpad edema | ≥ 50% | ≥ 50% | suppressed footpad edema |
| Cn1ccc2cc(-c3cc(CCC(=O)O)ccc3OCc3ccccc3Cl)ccc21 [Compound 245, 3-[4-(2-chlorophenylmethyloxy)-3-(1-methyl-1H-indol-5-yl)phenyl]propionic acid] | ≥ 50% | suppressed the footpad edema | ≥ 50% | ≥ 50% | suppressed footpad edema |
| CCn1ccc2cc(-c3cc(CCC(=O)O)ccc3OC3CCCCC3)ccc21 [Compound 248, 3-[4-cyclohexyloxy-3-(1-ethyl-1H-indol-5-yl)phenyl]propionic acid] | ≥ 50% | suppressed the footpad edema | ≥ 50% | ≥ 50% | suppressed footpad edema |
| O=C(O)CCc1cc(F)c(OCC2CCCC2)c(-c2ccc3[nH]ccc3c2)c1 [Compound 261, 3-[4-cyclopentylmethyloxy-3-fluoro-5-(1H-indol-5-yl)phenyl]propionic acid] | ≥ 50% | suppressed the footpad edema | ≥ 50% | ≥ 50% | suppressed footpad edema |
| O=C(O)CCc1ccc(OCC2CCCC2)c(-c2ccc3sccc3c2)c1 [Compound 281, 3-[3-(benzo[b]thiophen-5-yl)-4-cyclopentylmethyloxyphenyl]propionic acid] | ≥ 50% | suppressed the footpad edema | ≥ 50% | ≥ 50% | suppressed footpad edema |
| Nc1nc2ccc(-c3cc(CCC(=O)O)ccc3OCC3CCCCC3)cc2s1 [Compound 289, 3-[3-(2-aminobenzothiazol-6-yl)-4-cyclohexylmethyloxyphenyl]propionic acid] | ≥ 50% | suppressed the footpad edema | ≥ 50% | ≥ 50% | suppressed footpad edema |
| Nc1nc2ccc(-c3cc(CCC(=O)O)ccc3OC3CCCC3)cc2s1 [Compound 293, 3-[3-(2-aminobenzothiazol-6-yl)-4-cyclopentyloxyphenyl]propionic acid] | ≥ 50% | suppressed the footpad edema | ≥ 50% | ≥ 50% | suppressed footpad edema |
| O=C(O)CCc1ccc(OCC2CCCC2)c(-c2ccc3ncsc3c2)c1 [Compound 299, 3-[3-(benzothiazol-6-yl)-4-cyclopentylmethyloxyphenyl]propionic acid] | ≥ 50% | suppressed the footpad edema | ≥ 50% | ≥ 50% | suppressed footpad edema |

Reference: patent US6867320B2, “Substituted phenylalkanoic acid derivatives and use thereof” (Asahi Kasei Pharma Corporation, priority 2002, dated 2005)
